From ChEMBL document CHEMBL1909294, “Translating clinical findings into knowledge in drug safety evaluation--drug induced liver injury prediction system (DILIps)” (PLoS Comput Biol, 2011)

Key:
Hepatotoxicity [1] = system: Hepatotoxicity;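 on HepSE cholecystitis: Cholecystitis-related hepatic side effect score drawn from the DILIps (drug-induced liver injury prediction) training data set; call rule not given here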;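 on HepSE cholelithiasis: hepatic side effect score for cholelithiasis, drawn from the DILIps training data for predicting drug-induced liver injury; call rule not given here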;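 on HepSE elevated liver function tests: hepatic side effect score for raised liver function tests, as recorded in the DILIps training set used for predicting drug-induced liver injury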;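 on HepSE hepatic necrosis: score of hepatic side effects for hepatic necrosis, drawn from the training data of DILIps, a prediction system for drug-induced liver injury; call rule not given here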; on HepSE liver disease: call rule not given here;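 on HepSE liver function tests abnormal: hepatic side effect score taken from the DILIps (drug-induced liver injury prediction system) training data, here covering abnormal liver function test findings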
Hepatotoxicity [2] = system: Hepatotoxicity; remark: listed apart in the source;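 on HepSE cholecystitis: Cholecystitis-related hepatic side effect score drawn from the DILIps (drug-induced liver injury prediction) training data set; call rule not given here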;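 on HepSE cholelithiasis: hepatic side effect score for cholelithiasis, drawn from the DILIps training data for predicting drug-induced liver injury; call rule not given here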;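 on HepSE elevated liver function tests: hepatic side effect score for raised liver function tests, as recorded in the DILIps training set used for predicting drug-induced liver injury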;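 on HepSE hepatic necrosis: score of hepatic side effects for hepatic necrosis, drawn from the training data of DILIps, a prediction system for drug-induced liver injury; call rule not given here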; on HepSE liver disease: call rule not given here;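 on HepSE liver function tests abnormal: hepatic side effect score taken from the DILIps (drug-induced liver injury prediction system) training data, here covering abnormal liver function test findings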
Hepatotoxicity [3] = system: Hepatotoxicity; remark: listed apart in the source;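 on HepSE cholecystitis: Cholecystitis-related hepatic side effect score drawn from the DILIps (drug-induced liver injury prediction) training data set; call rule not given here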;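 on HepSE cholelithiasis: hepatic side effect score for cholelithiasis, drawn from the DILIps training data for predicting drug-induced liver injury; call rule not given here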;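 on HepSE elevated liver function tests: hepatic side effect score for raised liver function tests, as recorded in the DILIps training set used for predicting drug-induced liver injury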;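 on HepSE hepatic necrosis: score of hepatic side effects for hepatic necrosis, drawn from the training data of DILIps, a prediction system for drug-induced liver injury; call rule not given here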; on HepSE liver disease: call rule not given here;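 on HepSE liver function tests abnormal: hepatic side effect score taken from the DILIps (drug-induced liver injury prediction system) training data, here covering abnormal liver function test findings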
Hepatotoxicity [4] = system: Hepatotoxicity; remark: listed apart in the source;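 on HepSE cholecystitis: Cholecystitis-related hepatic side effect score drawn from the DILIps (drug-induced liver injury prediction) training data set; call rule not given here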;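 on HepSE cholelithiasis: hepatic side effect score for cholelithiasis, drawn from the DILIps training data for predicting drug-induced liver injury; call rule not given here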;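 on HepSE elevated liver function tests: hepatic side effect score for raised liver function tests, as recorded in the DILIps training set used for predicting drug-induced liver injury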;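 on HepSE hepatic necrosis: score of hepatic side effects for hepatic necrosis, drawn from the training data of DILIps, a prediction system for drug-induced liver injury; call rule not given here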; on HepSE liver disease: call rule not given here;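 on HepSE liver function tests abnormal: hepatic side effect score taken from the DILIps (drug-induced liver injury prediction system) training data, here covering abnormal liver function test findings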
Hepatotoxicity [5] = system: Hepatotoxicity; remark: listed apart in the source; on HepSE liver disease: call rule not given here
Hepatotoxicity [6] = system: Hepatotoxicity; remark: listed apart in the source; on HepSE liver disease: call rule not given here
Hepatotoxicity [7] = system: Hepatotoxicity; remark: listed apart in the source
Hepatotoxicity [8] = system: Hepatotoxicity; remark: listed apart in the source
Hepatotoxicity [9] = system: Hepatotoxicity; remark: listed apart in the source
Hepatotoxicity [10] = system: Hepatotoxicity; remark: listed apart in the source
Hepatotoxicity [11] = system: Hepatotoxicity; remark: listed apart in the source
Hepatotoxicity [12] = system: Hepatotoxicity; remark: listed apart in the source
Hepatotoxicity [13] = system: Hepatotoxicity; remark: listed apart in the source
Hepatotoxicity [14] = system: Hepatotoxicity; remark: listed apart in the source

Compound | HepSE_cholelithiasis (Hepatotoxicity [1]) | HepSE_elevated liver function tests (Hepatotoxicity [2]) | HepSE_hepatic necrosis (Hepatotoxicity [3]) | HepSE_liver function tests abnormal (Hepatotoxicity [4]) | HepSE_cholecystitis (Hepatotoxicity [5]) | HepSE_liver disease (Hepatotoxicity [6]) | HepSE_hepatomegaly (Hepatotoxicity [7]) | HepSE_hepatitis (Hepatotoxicity [8]) | HepSE_Combined Scores (Hepatotoxicity [9]) | HepSE_hepatic failure (Hepatotoxicity [10]) | HepSE_cirrhosis (Hepatotoxicity [11]) | HepSE_bilirubinemia (Hepatotoxicity [12]) | HepSE_liver fatty (Hepatotoxicity [13]) | HepSE_jaundice (Hepatotoxicity [14]) | further results
CC(COc1ccccc1)N(CCCl)Cc1ccccc1 (configuration not stated) [PHENOXYBENZAMINE] | 0 | 0 | 0 | 0 | 0 | 0 | 0 | 0 | 0 | 0 | 0 | 0 | 0 | 0 | –
CC(C)(N)Cc1ccccc1 [PHENTERMINE] | 0 | 0 | 0 | 0 | 0 | 0 | 0 | 0 | 0 | 0 | 0 | 0 | 0 | 0 | –
Cc1ccc(N(CC2=NCCN2)c2cccc(O)c2)cc1 [PHENTOLAMINE] | 0 | 0 | 0 | 0 | 0 | 0 | 0 | 0 | 0 | 0 | 0 | 0 | 0 | 0 | –
O=C1NC(=O)C(c2ccccc2)(c2ccccc2)N1 [PHENYTOIN] | – | – | – | – | – | – | – | – | – | – | – | – | – | – | HepSE_cholelithiasis (Hepatotoxicity [1]; Liver): 0; HepSE_elevated liver function tests (Hepatotoxicity [2]; Liver): 0; HepSE_hepatic necrosis (Hepatotoxicity [3]; Liver): 0; HepSE_liver function tests abnormal (Hepatotoxicity [4]; Liver): 0; HepSE_cholecystitis (Hepatotoxicity [5]; Liver): 0; HepSE_liver disease (Hepatotoxicity [6]; Liver): 0; HepSE_hepatomegaly (Hepatotoxicity [7]; Liver): 0; HepSE_hepatitis (Hepatotoxicity [8]; Liver): 1; HepSE_Combined Scores (Hepatotoxicity [9]; Liver): 1; HepSE_hepatic failure (Hepatotoxicity [10]; Liver): 0; HepSE_cirrhosis (Hepatotoxicity [11]; Liver): 0; HepSE_bilirubinemia (Hepatotoxicity [12]; Liver): 0; HepSE_liver fatty (Hepatotoxicity [13]; Liver): 0; HepSE_jaundice (Hepatotoxicity [14]; Liver): 0
O=P(O)(O)O [PHOSPHORIC ACID] | – | – | – | – | – | – | – | – | – | – | – | – | – | – | HepSE_cholelithiasis (Hepatotoxicity [1]; Liver): 0; HepSE_elevated liver function tests (Hepatotoxicity [2]; Liver): 0; HepSE_hepatic necrosis (Hepatotoxicity [3]; Liver): 0; HepSE_liver function tests abnormal (Hepatotoxicity [4]; Liver): 0; HepSE_cholecystitis (Hepatotoxicity [5]; Liver): 0; HepSE_liver disease (Hepatotoxicity [6]; Liver): 0; HepSE_hepatomegaly (Hepatotoxicity [7]; Liver): 0; HepSE_hepatitis (Hepatotoxicity [8]; Liver): 0; HepSE_Combined Scores (Hepatotoxicity [9]; Liver): 0; HepSE_hepatic failure (Hepatotoxicity [10]; Liver): 0; HepSE_cirrhosis (Hepatotoxicity [11]; Liver): 0; HepSE_bilirubinemia (Hepatotoxicity [12]; Liver): 0; HepSE_liver fatty (Hepatotoxicity [13]; Liver): 0; HepSE_jaundice (Hepatotoxicity [14]; Liver): 0
CC1=C(C/C=C(\C)CCC[C@H](C)CCC[C@H](C)CCCC(C)C)C(=O)c2ccccc2C1=O [PHYTONADIONE] | 0 | 0 | 0 | 0 | 0 | 0 | 0 | 0 | 1 | 0 | 0 | 1 | 0 | 0 | –
CC[C@@H]1C(=O)OC[C@@H]1Cc1cncn1C [PILOCARPINE] | 1 | 0 | 0 | 1 | 0 | 0 | 0 | 1 | 4 | 0 | 0 | 1 | 0 | 0 | –
CC[C@@H]1/C=C(\C)C[C@H](C)C[C@H](OC)[C@H]2O[C@@](O)(C(=O)C(=O)N3CCCC[C@H]3C(=O)O[C@H](/C(C)=C/[C@@H]3CC[C@H](Cl)[C@H](OC)C3)[C@H](C)[C@@H](O)CC1=O)[C@H](C)C[C@@H]2OC [PIMECROLIMUS] | 0 | 0 | 0 | 0 | 0 | 0 | 0 | 0 | 0 | 0 | 0 | 0 | 0 | 0 | –
O=c1[nH]c2ccccc2n1C1CCN(CCCC(c2ccc(F)cc2)c2ccc(F)cc2)CC1 [PIMOZIDE] | 0 | 0 | 0 | 0 | 0 | 0 | 0 | 0 | 0 | 0 | 0 | 0 | 0 | 0 | –
COc1cc(Br)c(C[N+]2(CCOCCC3CCC4CC3C4(C)C)CCOCC2)cc1OC.[Br-] (configuration not stated) [PINAVERIUM BROMIDE] | – | – | – | – | – | – | – | – | – | – | – | – | – | – | HepSE_cholelithiasis (Hepatotoxicity [1]; Liver): 0; HepSE_elevated liver function tests (Hepatotoxicity [2]; Liver): 0; HepSE_hepatic necrosis (Hepatotoxicity [3]; Liver): 0; HepSE_liver function tests abnormal (Hepatotoxicity [4]; Liver): 0; HepSE_cholecystitis (Hepatotoxicity [5]; Liver): 0; HepSE_liver disease (Hepatotoxicity [6]; Liver): 0; HepSE_hepatomegaly (Hepatotoxicity [7]; Liver): 0; HepSE_hepatitis (Hepatotoxicity [8]; Liver): 0; HepSE_Combined Scores (Hepatotoxicity [9]; Liver): 0; HepSE_hepatic failure (Hepatotoxicity [10]; Liver): 0; HepSE_cirrhosis (Hepatotoxicity [11]; Liver): 0; HepSE_bilirubinemia (Hepatotoxicity [12]; Liver): 0; HepSE_liver fatty (Hepatotoxicity [13]; Liver): 0; HepSE_jaundice (Hepatotoxicity [14]; Liver): 0
CC(C)NCC(O)COc1cccc2[nH]ccc12 (configuration not stated) [PINDOLOL] | 0 | 0 | 0 | 0 | 0 | 0 | 0 | 0 | 0 | 0 | 0 | 0 | 0 | 0 | –
CCc1ccc(CCOc2ccc(CC3SC(=O)NC3=O)cc2)nc1 (configuration not stated) [PIOGLITAZONE] | 0 | 0 | 0 | 1 | 0 | 0 | 0 | 1 | 3 | 1 | 0 | 0 | 0 | 0 | –
CCN1CCN(C(=O)N[C@@H](C(=O)N[C@@H]2C(=O)N3[C@@H]2SC(C)(C)[C@@H]3C(=O)O)c2ccccc2)C(=O)C1=O [PIPERACILLIN] | 0 | 0 | 0 | 0 | 0 | 1 | 0 | 1 | 3 | 0 | 0 | 1 | 0 | 0 | –
